# Reference: US20060252807A1, “Novel ortho-terphenyl inhibitors of p38 kinase and methods of treating inflammatory disorders” (Kalypsys, Inc., priority 2005, published 2006)
# Target: T1, active p38 alpha enzyme (Upstate Biotechnology) (Homo sapiens, UniProt Q16539)
# T1 construct: purchased Upstate Biotechnology
# Test: p38α biochemical assay (ATP turnover, luminescent detection, Cambrex PKlight)
# Conditions: p38α kinase; Table 1 Biological Activity
# Summary of the method: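 Luminescent PKlight readout of total ATP consumption follows a 2 h, 30C kinase reaction. Enzyme and MapkapK2 substrate run with 1.4 uM ATP (final) in buffer containing Mg2+, Ca2+, chelators, glycerol, reducing agent and BSA; test compounds added by pintool from DMSO.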
# T1 sequence (Q16539 whole entry): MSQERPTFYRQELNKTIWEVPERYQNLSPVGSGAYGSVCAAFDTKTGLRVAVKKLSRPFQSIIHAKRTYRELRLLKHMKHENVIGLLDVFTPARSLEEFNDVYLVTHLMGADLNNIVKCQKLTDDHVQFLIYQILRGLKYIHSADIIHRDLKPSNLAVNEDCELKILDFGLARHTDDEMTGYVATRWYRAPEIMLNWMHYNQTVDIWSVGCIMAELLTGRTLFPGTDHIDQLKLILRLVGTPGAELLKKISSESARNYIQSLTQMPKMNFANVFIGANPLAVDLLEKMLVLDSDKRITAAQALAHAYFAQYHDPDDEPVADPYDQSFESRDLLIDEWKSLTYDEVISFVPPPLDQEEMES
row,SMILES,IC50 [nM]
1,CC(C)NC(=O)c1csc(-c2c(-c3ccc(F)cc3)noc2CNCc2cccc(F)c2)n1 [Example 1434],> 1000
2,CC(C)NC(=O)c1csc(-c2c(-c3ccc(F)cc3)noc2CNCc2ccc(F)cc2)n1 [Example 1435],> 1000
3,CC(C)NC(=O)c1csc(-c2c(-c3ccc(F)cc3)noc2CNCc2ccccc2F)n1 [Example 1436],> 1000
4,CC(C)NC(=O)c1csc(-c2c(-c3ccc(F)cc3)noc2CNCCCn2ccnc2)n1 [Example 1437],> 1000
5,CC(C)NC(=O)c1csc(-c2c(-c3ccc(F)cc3)noc2CNCCC2CCCN2C)n1 (centres unmarked) [Example 1438],> 1000
6,CC(C)NC(=O)c1csc(-c2c(-c3ccc(F)cc3)noc2CNCCN2CCCCC2)n1 [Example 1439],> 1000
7,CC(C)CCCC(C)NCc1onc(-c2ccc(F)cc2)c1-c1nc(C(=O)NC(C)C)cs1 (centres unmarked) [Example 1440],> 1000
8,CC(C)NC(=O)c1csc(-c2c(-c3ccc(F)cc3)noc2CNCCN2CCOCC2)n1 [Example 1441],> 1000
9,CCOC(=O)CC(C)NCc1onc(-c2ccc(F)cc2)c1-c1nc(C(=O)NC(C)C)cs1 (centres unmarked) [Example 1442],> 1000
10,CC(C)NC(=O)c1csc(-c2c(-c3ccc(F)cc3)noc2CNC2CCc3ccccc32)n1 (centres unmarked) [Example 1443],> 1000
11,Cc1ccc(CCNCc2onc(-c3ccc(F)cc3)c2-c2nc(C(=O)NC(C)C)cs2)cc1 [Example 1444],> 1000
12,Cc1ccc(C)c(CNCc2onc(-c3ccc(F)cc3)c2-c2nc(C(=O)NC(C)C)cs2)c1 [Example 1445],> 1000
13,Cc1ccc([C@H](C)NCc2onc(-c3ccc(F)cc3)c2-c2nc(C(=O)NC(C)C)cs2)cc1 [Example 1446],> 1000
14,Cc1ccc([C@@H](C)NCc2onc(-c3ccc(F)cc3)c2-c2nc(C(=O)NC(C)C)cs2)cc1 [Example 1447],> 1000
15,CC(C)NC(=O)c1csc(-c2c(-c3ccc(F)cc3)noc2CNCC(C)c2ccccc2)n1 (centres unmarked) [Example 1448],> 1000
16,CC(C)NC(=O)c1csc(-c2c(-c3ccc(F)cc3)noc2CNCC(C)c2ccccc2)n1 (centres unmarked) [Example 1449],> 1000
17,CC(C)NC(=O)c1csc(-c2c(-c3ccc(F)cc3)noc2CNCCCc2ccccc2)n1 [Example 1450],> 1000
18,Cc1ccc(CNCc2onc(-c3ccc(F)cc3)c2-c2nc(C(=O)NC(C)C)cs2)cc1C [Example 1451],> 1000
19,CC(C)NC(=O)c1csc(-c2c(-c3ccc(F)cc3)noc2CNC(C)Cc2ccncc2)n1 (centres unmarked) [Example 1452],> 1000

row,SMILES,IC50 [nM]
1,CC(C)NC(=O)c1csc(-c2c(-c3ccc(F)cc3)noc2CNCCc2ccc(O)cc2)n1 [Example 1453],> 1000
2,CC(C)NC(=O)c1csc(-c2c(-c3ccc(F)cc3)noc2CNCCOc2ccccc2)n1 [Example 1454],> 1000
3,COc1ccccc1CNCc1onc(-c2ccc(F)cc2)c1-c1nc(C(=O)NC(C)C)cs1 [Example 1455],> 1000
4,COc1ccc(CNCc2onc(-c3ccc(F)cc3)c2-c2nc(C(=O)NC(C)C)cs2)cc1 [Example 1456],> 1000
5,COc1cccc(CNCc2onc(-c3ccc(F)cc3)c2-c2nc(C(=O)NCC(C)C)cs2)c1 [Example 1457],> 1000
6,CC(C)NC(=O)c1csc(-c2c(-c3ccc(F)cc3)noc2CNCCc2ccc(F)cc2)n1 [Example 1458],> 1000
7,CC(C)NC(=O)c1csc(-c2c(-c3ccc(F)cc3)noc2CNCCc2ccccc2F)n1 [Example 1459],> 1000
8,CC(C)NC(=O)c1csc(-c2c(-c3ccc(F)cc3)noc2CNCCc2cccc(F)c2)n1 [Example 1460],> 1000
9,CC(C)NC(=O)c1csc(-c2c(-c3ccc(F)cc3)noc2CNCc2cccc(Cl)c2)n1 [Example 1461],> 1000
10,CC(C)NC(=O)c1csc(-c2c(-c3ccc(F)cc3)noc2CNCc2ccccc2Cl)n1 [Example 1462],> 1000
11,CC(C)NC(=O)c1csc(-c2c(-c3ccc(F)cc3)noc2CNCc2ccc(Cl)cc2)n1 [Example 1463],> 1000
12,CC(C)NC(=O)c1csc(-c2c(-c3ccc(F)cc3)noc2CNCc2ccc(F)cc2F)n1 [Example 1465],> 1000
13,CC(C)NC(=O)c1csc(-c2c(-c3ccc(F)cc3)noc2CNCc2ccc(F)c(F)c2)n1 [Example 1466],> 1000
14,CC(C)NC(=O)c1csc(-c2c(-c3ccc(F)cc3)noc2CNCc2cc(F)cc(F)c2)n1 [Example 1467],> 1000
15,CC(C)NC(=O)c1csc(-c2c(-c3ccc(F)cc3)noc2CNCCCN2CCOCC2)n1 [Example 1468],> 1000
16,CC(C)NC(=O)c1csc(-c2c(-c3ccc(F)cc3)noc2CNCCN(C(C)C)C(C)C)n1 [Example 1469],> 1000
17,CC(C)NC(=O)c1csc(-c2c(-c3ccc(F)cc3)noc2CNC(C)CCc2ccccc2)n1 (centres unmarked) [Example 1470],> 1000
18,CC(C)NC(=O)c1csc(-c2c(-c3ccc(F)cc3)noc2CNCc2ccc(C(C)C)cc2)n1 [Example 1471],> 1000

# Results, then the compound that gave them:
row,IC50 [nM],SMILES
1,> 1000,CC(C)CNCc1onc(-c2ccc(F)cc2)c1-c1nc(C(=O)NC(C)C)cs1 [Example 1394]
2,> 1000,CC(C)NC(=O)c1csc(-c2c(-c3ccc(F)cc3)noc2CNCCCO)n1 [Example 1395]
3,> 1000,CC(C)NC(=O)c1csc(-c2c(-c3ccc(F)cc3)noc2CNC(C)CO)n1 (centres unmarked) [Example 1396]
4,> 1000,CC(C)NC(=O)c1csc(-c2c(-c3ccc(F)cc3)noc2CNC2CCCC2)n1 [Example 1397]
5,> 1000,CCCC(C)NCc1onc(-c2ccc(F)cc2)c1-c1nc(C(=O)NC(C)C)cs1 (centres unmarked) [Example 1398]
6,> 1000,CCC(C)CNCc1onc(-c2ccc(F)cc2)c1-c1nc(C(=O)NC(C)C)cs1 (centres unmarked) [Example 1399]
7,> 1000,CC(C)NC(=O)c1csc(-c2c(-c3ccc(F)cc3)noc2CNC(C)C(C)C)n1 (centres unmarked) [Example 1400]
8,> 1000,CC(C)CCNCc1onc(-c2ccc(F)cc2)c1-c1nc(C(=O)NC(C)C)cs1 [Example 1401]
9,> 1000,CC(C)NC(=O)c1csc(-c2c(-c3ccc(F)cc3)noc2CNCCN(C)C)n1 [Example 1402]
10,> 1000,COCC(C)NCc1onc(-c2ccc(F)cc2)c1-c1nc(C(=O)NC(C)C)cs1 (centres unmarked) [Example 1403]
11,> 1000,CCC(CO)NCc1onc(-c2ccc(F)cc2)c1-c1nc(C(=O)NC(C)C)cs1 (centres unmarked) [Example 1405]
12,> 1000,CC(C)NC(=O)c1csc(-c2c(-c3ccc(F)cc3)noc2CNCCCCO)n1 [Example 1406]
13,> 1000,CC(C)NC(=O)c1csc(-c2c(-c3ccc(F)cc3)noc2CNCc2ccco2)n1 [Example 1407]
14,> 1000,CC(C)NC(=O)c1csc(-c2c(-c3ccc(F)cc3)noc2CNC2CCCCC2)n1 [Example 1408]
15,> 1000,CC(C)NC(=O)c1csc(-c2c(-c3ccc(F)cc3)noc2CNCC2CCCO2)n1 (centres unmarked) [Example 1409]
16,> 1000,CC(C)NC(=O)c1csc(-c2c(-c3ccc(F)cc3)noc2CNCCC(C)(C)C)n1 [Example 1410]
17,> 1000,CC(C)CC(C)NCc1onc(-c2ccc(F)cc2)c1-c1nc(C(=O)NC(C)C)cs1 (centres unmarked) [Example 1411]
18,> 1000,CC(C)NC(=O)c1csc(-c2c(-c3ccc(F)cc3)noc2CNC2CONC2=O)n1 (centres unmarked) [Example 1412]
19,> 1000,CC(C)NC(=O)c1csc(-c2c(-c3ccc(F)cc3)noc2CNN2CCOCC2)n1 [Example 1413]
20,> 1000,CC(C)NC(=O)c1csc(-c2c(-c3ccc(F)cc3)noc2CNC(CO)C(C)C)n1 (centres unmarked) [Example 1414]

row,IC50 [nM],SMILES
1,> 1000,CC(C)NC(=O)c1csc(-c2c(-c3ccc(F)cc3)noc2CNCc2ccccc2)n1 [Example 1415]
2,> 1000,CC(C)NC(=O)c1csc(-c2c(-c3ccc(F)cc3)noc2CNCc2cccnc2)n1 [Example 1416]
3,> 1000,CC(C)NC(=O)c1csc(-c2c(-c3ccc(F)cc3)noc2CNCc2ccccn2)n1 [Example 1417]
4,> 1000,CC(C)NC(=O)c1csc(-c2c(-c3ccc(F)cc3)noc2CNCc2ccncc2)n1 [Example 1418]
5,> 1000,CC(C)NC(=O)c1csc(-c2c(-c3ccc(F)cc3)noc2CNCc2cccs2)n1 [Example 1419]
6,> 1000,CC1CCC(NCc2onc(-c3ccc(F)cc3)c2-c2nc(C(=O)NC(C)C)cs2)CC1 (centres unmarked) [Example 1420]
7,> 1000,CC(C)NC(=O)c1csc(-c2c(-c3ccc(F)cc3)noc2CNCC2CCCCC2)n1 [Example 1421]
8,> 1000,CC(C)NC(=O)c1csc(-c2c(-c3ccc(F)cc3)noc2CNC2CCCCCC2)n1 [Example 1422]
9,> 1000,CC(C)NC(=O)c1csc(-c2c(-c3ccc(F)cc3)noc2CNC2CCCCC2C)n1 (centres unmarked) [Example 1423]
10,≤ 1000,CC(C)NC(=O)c1csc(-c2c(-c3ccc(F)cc3)noc2CNCCN2CCCC2)n1 [Example 1424]
11,> 1000,CC(C)NC(=O)c1csc(-c2c(-c3ccc(F)cc3)noc2CNN2CCN(C)CC2)n1 [Example 1425]
12,> 1000,CCN(CC)CCNCc1onc(-c2ccc(F)cc2)c1-c1nc(C(=O)NC(C)C)cs1 [Example 1426]
13,> 1000,Cc1cccc(CNCc2onc(-c3ccc(F)cc3)c2-c2nc(C(=O)NC(C)C)cs2)c1 [Example 1427]
14,> 1000,CC(C)NC(=O)c1csc(-c2c(-c3ccc(F)cc3)noc2CN[C@@H](C)c2ccccc2)n1 [Example 1428]
15,> 1000,CC(C)NC(=O)c1csc(-c2c(-c3ccc(F)cc3)noc2CN[C@H](C)c2ccccc2)n1 [Example 1429]
16,> 1000,CC(C)NC(=O)c1csc(-c2c(-c3ccc(F)cc3)noc2CNCCc2ccccc2)n1 [Example 1430]
17,> 1000,Cc1ccccc1CNCc1onc(-c2ccc(F)cc2)c1-c1nc(C(=O)NC(C)C)cs1 [Example 1431]
18,> 1000,Cc1ccc(CNCc2onc(-c3ccc(F)cc3)c2-c2nc(C(=O)NC(C)C)cs2)cc1 [Example 1432]
19,> 1000,Cc1cnc(CNCc2onc(-c3ccc(F)cc3)c2-c2nc(C(=O)NC(C)C)cs2)cn1 [Example 1433]
20,≤ 1000,CC(C)NC(=O)c1csc(-c2c(-c3ccc(F)cc3)noc2CNCCCN2CCCC2=O)n1 [Example 1464]
